Assays:
Type in all cases: in vivo
[1] = system: Erysiphe graminis f. sp. tritici; experiment: Test A: wheat powdery mildew, preventive spray on wheat seedlings, visual disease rating
Summary of the method: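 Acetone/water (50/50) suspension with 250 ppm surfactant sprayed to run-off on wheat seedlings (200 ppm ≈ 500 g/ha); inoculated next day with E. graminis spore dust. Incubated 8 days at 20° C, then visually rated 0–100% disease control versus untreated controls; tests at 200 ppm or 40 ppm.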

[2] = system: Puccinia recondite f. sp. tritici; experiment: Test B: wheat leaf rust, preventive spray on wheat seedlings, visual disease rating
Summary of the method: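 Wheat seedlings were sprayed to run-off with compound suspension, 200 ppm (≈500 g/ha) or 40 ppm where marked, containing surfactant in acetone/water. Inoculation with Puccinia recondita spores followed one day later, then 24 h in saturated humidity at 20° C and 7 days at 20° C. Disease control was rated visually, 0–100% versus controls.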

Septoria nodorum = experiment: Test D: wheat glume blotch, preventive spray on wheat seedlings, visual disease rating
Summary of the method: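 Compounds in 3% acetone, then 50/50 acetone–water with 250 ppm Trem 014, sprayed to run-off at 200 ppm (500 g/ha; some at 40 ppm) one day before spore inoculation. Held 48 h saturated at 20 °C, then 7 days at 20 °C; visual rating as % disease control vs untreated (0–100).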

Alternaria solani = experiment: Test E: tomato early blight, preventive spray on tomato seedlings, visual disease rating
Summary of the method: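 Seedlings sprayed to run-off with compound in acetone/water plus 250 ppm Trem 014 (200 ppm ≈ 500 g/ha), inoculated with spores next day. Held 48 h saturated at 27 °C, then 5 days at 20 °C; visual rating 0–100% disease control relative to controls.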

Botrytis cinerea = experiment: Test F: tomato botrytis, preventive spray on tomato seedlings, visual disease rating
Summary of the method: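 Tomato seedlings sprayed to run-off with compound suspended in acetone/water (50/50) plus 250 ppm Trem 014, at 200 ppm (≈500 g/ha) or 40 ppm where marked. Inoculated next day with B. cinerea spores, 48 h saturated atmosphere at 20 °C, then 3 days at 24 °C. Visual rating, 0–100% disease control relative to controls.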

Plasmopara viticola = experiment: Test H: grape downy mildew, spray after inoculation of grape seedlings, visual disease rating; details: for pest or weed control at 200 ppm: Plasmopara viticola, 192 h
From the text: General protocol for preparing test suspensions for Tests A-H: The test compounds were first dissolved in acetone in an amount equal to 3% of the final volume and then suspended at the desired concentration (in ppm) in acetone and purified water (50/50 mix) containing 250 ppm of the surfactant Trem® 014 (polyhydric alcohol esters). The resulting test suspensions were then used in tests A-H. Spraying a 200 ppm test suspension to the point of run-off on the test plants was the equivalent of a rate of 500 g/ha.
Grape seedlings were inoculated with a spore suspension of Plasmopara viticola (the causal agent of grape downy mildew) and incubated in a saturated atmosphere at 20° C. for 24 h. After a short drying period, the test suspension was sprayed to the point of run-off on the grape seedlings, and then moved to a growth chamber at 20° C. for 6 days, after which time the test units were placed back into a saturated atmosphere at 20° C. for 24 h. Upon removal, disease ratings were visually made.
Results for Tests A-H are given in Table A. In the table, a rating of 100 indicates 100% disease control and a rating of 0 indicates no disease control (relative to the controls). A dash (-) indicates no test results. All results are for compounds tested at 200 ppm except where the compound number is followed by “*” which indicates the compound was tested at 40 ppm.

Septoria tritici = experiment: Test C: wheat leaf blotch, preventive spray on wheat seedlings, visual disease rating
Summary of the method: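 Wheat seedlings sprayed to run-off with compound in acetone/water plus 250 ppm surfactant at 200 ppm (≈500 g/ha), or 40 ppm where marked; inoculated with Septoria tritici next day. Held saturated at 20 °C for 48 h, then 19 days at 20 °C; disease control rated visually 0–100 versus controls.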

[3] = 200 ppm, 100 = 100% disease control, 0 = no control
[4] = 40 ppm (compound number followed by *)
[5] = Blumeria graminis, 192 h, 200 ppm, 100 = 100% disease control, 0 = no control
[6] = 192 h, 200 ppm, 100 = 100% disease control, 0 = no control
[7] = Zymoseptoria tritici, 504 h, 200 ppm, 100 = 100% disease control, 0 = no control
[8] = Parastagonospora nodorum, 216 h, 200 ppm, 100 = 100% disease control, 0 = no control
[9] = Alternaria solani, 168 h, 200 ppm, 100 = 100% disease control, 0 = no control
[10] = Botrytis cinerea, 120 h, 200 ppm, 100 = 100% disease control, 0 = no control

Compound | Test A rating (% disease control) [1, 3] [%] | Test B rating (% disease control) [2, 3] [%] | Test D rating (% disease control) (Septoria nodorum; [3]) [%] | Test E rating (% disease control) (Alternaria solani; [3]) [%] | Test F rating (% disease control) (Botrytis cinerea; [3]) [%] | Test H rating (% disease control) (Plasmopara viticola; [3]) [%] | Test C rating (% disease control) (Septoria tritici; [3]) [%] | further results
CCOC(=O)c1cnc(C)c(-c2ccccc2)c1-c1cc(OC)cc(OC)c1 [Compound 1] | 96 | 28 | 0 | 0 | 99 | 0 |  | 
CCOC(=O)c1cnc(C)c(-c2ccccc2)c1-c1cc(OC)cc(OC)c1Cl [Compound 25] |  |  |  |  |  |  |  | Test A rating (% disease control) [1, 4]: 0%; Test B rating (% disease control) [2, 4]: 0%; Test C rating (% disease control) (Septoria tritici; [4]): 0%; Test D rating (% disease control) (Septoria nodorum; [4]): 0%; Test E rating (% disease control) (Alternaria solani; [4]): 0%; Test F rating (% disease control) (Botrytis cinerea; [4]): 84%; Test H rating (% disease control) (Plasmopara viticola; [4]): 0%
CCc1ncc(C(C)(C)O)c(-c2cc(OC)cc(OC)c2)c1-c1ccccc1 [Compound 28] | 96 | 28 | 0 | 93 | 99 | 0 | 100 | 
COc1cc(OC)cc(-c2c(C(C)=O)cnc(C)c2-c2ccc(F)cc2)c1 [Compound 12, 1-[4-(3,5-dimethoxyphenyl)-5-(4-fluorophenyl)-6-methyl-3-pyridinyl]ethanone] |  |  |  |  |  |  |  | pest or weed control at 200 ppm [1, 5]: 95%; pest or weed control at 200 ppm [2, 6]: 93%; pest or weed control at 200 ppm (Septoria tritici; [7]): 92%; pest or weed control at 200 ppm (Septoria nodorum; [8]): 0%; pest or weed control at 200 ppm (Alternaria solani; [9]): 90%; pest or weed control at 200 ppm (Botrytis cinerea; [10]): 99%; pest or weed control at 200 ppm (Plasmopara viticola; [3]): 0%
COc1cc(OC)cc(-c2c(C(C)(C)O)cnc(C)c2-c2ccc(F)cc2)c1 [Compound 13, 4-(3,5-dimethoxyphenyl)-5-(4-fluorophenyl)-α,α,6-trimethyl-3-pyridinemethanol] |  |  |  |  |  |  |  | pest or weed control at 200 ppm [1, 5]: 96%; pest or weed control at 200 ppm [2, 6]: 99%; pest or weed control at 200 ppm (Septoria tritici; [7]): 100%; pest or weed control at 200 ppm (Septoria nodorum; [8]): 0%; pest or weed control at 200 ppm (Alternaria solani; [9]): 100%; pest or weed control at 200 ppm (Botrytis cinerea; [10]): 99%; pest or weed control at 200 ppm (Plasmopara viticola; [3]): 0%
CCc1ncc(C(C)C)c(-c2cc(OC)cc(OC)c2)c1-c1ccccc1 [Compound 30] | 98 | 80 | 0 | 0 | 99 | 0 | 100 | 
CCC(C)(O)c1cnc(C)c(-c2ccc(F)cc2)c1-c1cc(OC)cc(OC)c1 (centres unmarked) [Compound 14] | 97 | 98 | 0 | 99 | 99 | 0 | 99 | 
COc1cc(OC)cc(-c2c(C(C)=O)cnc(C)c2-c2ccccc2)c1 [Compound 2] | 95 | 0 | 0 | 0 | 99 | 0 |  | 
COc1cc(OC)cc(-c2c(-c3ccccc3F)c[n+]([O-])c(C)c2-c2ccccc2)c1 [Compound 33] | 79 |  |  | 100 | 95 | 0 |  | 
CCOC(=O)c1cnc(C)c(-c2ccc(F)cc2)c1-c1cc(OC)cc(OC)c1 [Compound 11, ethyl 4-(3,5-dimethoxyphenyl)-5-(4-fluorophenyl)-6-methyl-3-pyridinecarboxylate] |  |  |  |  |  |  |  | pest or weed control at 200 ppm [1, 5]: 98%; pest or weed control at 200 ppm [2, 6]: 0%; pest or weed control at 200 ppm (Septoria tritici; [7]): 30%; pest or weed control at 200 ppm (Septoria nodorum; [8]): 0%; pest or weed control at 200 ppm (Alternaria solani; [9]): 0%; pest or weed control at 200 ppm (Botrytis cinerea; [10]): 0%; pest or weed control at 200 ppm (Plasmopara viticola; [3]): 0%
CCOC(=O)c1c[n+]([O-])c(C)c(-c2ccccc2)c1-c1cc(OC)cc(OC)c1 [Compound 51] | 76 | 0 | 0 | 0 | 0 | 0 |  | 
COc1cc(OC)cc(-c2c(Br)cnc(C)c2-c2c(F)cc(F)cc2F)c1 [Compound 122, 5-bromo-4-(3,5-dimethoxyphenyl)-2-methyl-3-(2,4,6-trifluorophenyl)pyridine] |  |  |  |  |  |  |  | pest or weed control at 40 ppm ([1]; Blumeria graminis, 192 h, 40 ppm (compound number followed by *)): 98%; pest or weed control at 40 ppm ([2]; 192 h, 40 ppm (compound number followed by *)): 99%; pest or weed control at 40 ppm (Septoria tritici; Zymoseptoria tritici, 504 h, 40 ppm (compound number followed by *)): 99%; pest or weed control at 40 ppm (Septoria nodorum; Parastagonospora nodorum, 216 h, 40 ppm (compound number followed by *)): 0%; pest or weed control at 40 ppm (Alternaria solani; Alternaria solani, 168 h, 40 ppm (compound number followed by *)): 0%; pest or weed control at 40 ppm (Botrytis cinerea; Botrytis cinerea, 120 h, 40 ppm (compound number followed by *)): 100%
COc1cc(OC)cc(-c2c(C(O)C(C)C)cnc(C)c2-c2c(F)cc(F)cc2F)c1 (centres unmarked) [Compound 103] | 100 | 100 | 98 | 100 | 99 |  | 95 | 
COc1cc(OC)cc(-c2c(C=O)cnc(C)c2-c2c(F)ccc(OC)c2F)c1 [Compound 113] |  |  |  |  |  |  |  | Test A rating (% disease control) [1, 4]: 0%; Test B rating (% disease control) [2, 4]: 89%; Test C rating (% disease control) (Septoria tritici; [4]): 76%; Test D rating (% disease control) (Septoria nodorum; [4]): 0%; Test E rating (% disease control) (Alternaria solani; [4]): 9%; Test F rating (% disease control) (Botrytis cinerea; [4]): 79%
COc1cc(OC)cc(-c2c(C(C)=O)cnc(C)c2-c2c(F)cc(OC)cc2F)c1 [Compound 71] | 98 | 100 | 81 | 100 | 99 |  | 95 | 
CCOC(=O)c1cnc(C)c(-c2c(F)ccc(F)c2F)c1-c1cc(OC)cc(OC)c1 [Compound 66] | 99 | 98 | 0 | 99 | 95 |  | 98 | 
COc1ccc(-c2c(C)ncc(C(C)(C)O)c2-c2cc(OC)cc(OC)c2)cc1 [Compound 62] | 80 | 100 | 73 | 100 | 95 |  | 94 | 
COc1cc(OC)cc(-c2c(Cn3cncn3)cnc(C)c2-c2c(F)cc(F)cc2F)c1 [Compound 104] | 100 | 100 | 99 | 100 | 99 |  | 98 | 
COc1cc(OC)cc(-c2c(C(C)=NO)cnc(C)c2-c2c(F)cc(F)cc2F)c1 (single isomer, unassigned) [Compound 114] |  |  |  |  |  |  |  | Test A rating (% disease control) [1, 4]: 89%; Test B rating (% disease control) [2, 4]: 99%; Test C rating (% disease control) (Septoria tritici; [4]): 99%; Test D rating (% disease control) (Septoria nodorum; [4]): 69%; Test E rating (% disease control) (Alternaria solani; [4]): 94%; Test F rating (% disease control) (Botrytis cinerea; [4]): 99%

— patent publication US20110092544A1, “FUNGICIDAL PYRIDINES” (E.I. DU PONT DE nemours and company, priority 2008, published 2011)
